From patent US8541363B2, “Pyruvamide compounds as inhibitors of dust mite group 1 peptidase allergen and their use” (St George's Hosptial Medical School, priority 2010, dated 2013) come the findings set out here.

SMILES strings stand for the structures. pIC50: −log10 of the molar value. Some results are limits rather than exact numbers.

The target of one test is Der p 1 (Dermatophagoides pteronyssinus (European house dust mite), UniProt P08176). The experiment in a line: Der p 1 enzyme activity assay (FRET fluorogenic substrate). It counts as biochemical. The note with it: Der p 1 IC50. How it is done: The fluorogenic substrate used for measuring Der p 1 proteolytic activity was 2-aminobenzoylvalylalanylnorleucylseryl-(3-nitro)tyrosinyl aspartamide.
Sequence of Der p 1 (P08176 99-320): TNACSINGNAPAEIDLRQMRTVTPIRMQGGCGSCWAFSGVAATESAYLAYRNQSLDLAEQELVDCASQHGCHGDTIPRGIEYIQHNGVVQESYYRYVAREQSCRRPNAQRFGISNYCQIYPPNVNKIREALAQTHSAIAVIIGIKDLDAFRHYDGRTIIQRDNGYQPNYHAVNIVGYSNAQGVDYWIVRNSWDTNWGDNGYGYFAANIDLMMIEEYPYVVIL
Test compounds were dissolved in dry DMSO and maintained at 4° C. as stock solutions until being diluted for use in screening assays. Final concentration of DMSO in all enzymatic assays was 0.5% v/v.
Reaction mixtures were assembled in a 96-well plate format (Perkin Elmer Optiplate 96F, Perkin Elmer LAS, Seer Green, Buckinghamshire, UK) using a Perkin Elmer MultiPROBE II Plus HTS EX robot with Gripper attachment. […] Dithiothreitol (DTT, 10 μL/well, 1 mM final concentration) was then added together with 10 μL of Der p 1 dissolved at 2.5 μg/mL in reaction buffer supplemented with 1 mM DTT. […] The plate was immediately transferred to a fluorescence plate reader (Perkin Elmer Fusion Alpha-FP or Perkin Elmer Envision) equipped with a temperature-controlled carrier set at 30° C. and the reaction followed by excitation/emission at 330/420 nm.
Inhibitory activity was analysed from progress curves of reactions in the presence of a range of inhibitor concentrations.
Initial velocity in each well was converted to fractional activity by Equation 1: Fractional activity=(Initial rate at inhibitor concentration[X]/Initial rate at inhibitor concentration zero)*100 Equation 1:
Then, IC50 was determined by fitting the data of fractional activity and inhibitor concentration to a 4-parameter logistic curve, using Equation 2: V=Vmin+[Vmax−Vmin]/[1+(X/IC50)Hillslope] […] Biological Data—Der p 1 Enzyme Assay
For the compound `CC(C)[C@H](NC(=O)[C@H](C)NC(=O)[C@H](Cc1ccccc1)NC(=O)c1ccccc1)C(=O)C(=O)NCC(=O)N1CCN(C)CC1` [PVA-047], the pIC50 is greater than 7.70.

On to `CC(C)[C@H](NC(=O)[C@H](C)NC(=O)[C@@H](NC(=O)c1ccccc1)C(C)(C)C)C(=O)C(=O)NCC(=O)N1CCN(C)CC1` [PVA-055], for which the pIC50 is greater than 7.70.

Still in this test, the particulars now being: Table 1; read-out: Der p 1 IC50.
Regarding `CCCC[C@H](NC(=O)[C@H](C)NC(=O)[C@@H](NC(=O)c1ccccc1)C(C)(C)C)C(=O)C(=O)NC1CCCCC1` [PVA-037], the pIC50 was 8.11.

For `CCCC[C@H](NC(=O)[C@H](C)NC(=O)[C@@H](NC(=O)c1ccncc1)C(C)(C)C)C(=O)C(=O)NC1CCCCC1` [PVA-039], the pIC50 is 8.20.

The test is the same for the next values; noted with them: threshold stated in text; read-out: Der p 1 IC50.
As to `CC(C)C(NC(=O)[C@H](C)NC(=O)[C@@H](Cc1ccccc1)NC(=O)c1ccncc1)C(=O)C(=O)NC1CCCCC1` (stereo in doubt) [PVA-020], the pIC50 was greater than 6.70.

`CC(C)C[C@H](NC(=O)[C@H](C)NC(=O)[C@H](Cc1ccccc1)NC(=O)c1ccccc1)C(=O)C(=O)N[C@@H](C)c1ccccc1` [PVA-002]: the pIC50 is greater than 6.70.

As to `CC(C)[C@H](NC(=O)[C@H](C)NC(=O)[C@H](Cc1ccccc1)NC(=O)c1ccccc1)C(=O)C(=O)NC1CCCCC1` [PVA-003], the pIC50 is greater than 7.70.

Regarding `CC(C)C[C@H](NC(=O)[C@H](C)NC(=O)[C@H](Cc1ccccc1)NC(=O)c1ccccc1)C(=O)C(=O)NC(C)C` [PVA-004], the pIC50 was greater than 6.70.

Regarding `CC(C)C[C@H](NC(=O)[C@H](C)NC(=O)[C@H](Cc1ccccc1)NC(=O)c1ccccc1)C(=O)C(=O)NCc1ccccc1` [PVA-005], the pIC50 is greater than 7.70.

`CCCCC(NC(=O)[C@H](C)NC(=O)[C@H](Cc1ccccc1)NC(=O)c1ccccc1)C(=O)C(=O)N1CCCC1` (stereo partly shown) [PVA-006]: the pIC50 was greater than 5.70.

`CCCCC(NC(=O)[C@H](C)NC(=O)[C@H](Cc1ccccc1)NC(=O)c1ccccc1)C(=O)C(=O)N1CCN(C)CC1` (stereo partly shown) [PVA-007]: the pIC50 was greater than 5.70.

Consider `CC(C)[C@H](NC(=O)[C@H](C)NC(=O)[C@H](Cc1ccccc1)NC(=O)c1ccccc1)C(=O)C(=O)NCc1ccccc1` [PVA-009], for which the pIC50 was greater than 7.70.

Regarding `CC(C)[C@H](NC(=O)[C@H](C)NC(=O)[C@H](Cc1ccccc1)NC(=O)c1ccccc1)C(=O)C(=O)NCCc1ccccc1` [PVA-010], the pIC50 was greater than 6.70.

For the compound `CC(C)[C@H](NC(=O)[C@H](C)NC(=O)[C@H](Cc1ccccc1)NC(=O)c1ccccc1)C(=O)C(=O)Nc1ccc(F)cc1` [PVA-011], the pIC50 was greater than 6.70.

As for `COc1ccc(NC(=O)C(=O)[C@@H](NC(=O)[C@H](C)NC(=O)[C@H](Cc2ccccc2)NC(=O)c2ccccc2)C(C)C)cc1` [PVA-012], the pIC50 was greater than 5.70.

In the case of `CC(C)NC(=O)C(=O)[C@@H](NC(=O)[C@H](C)NC(=O)[C@H](Cc1ccccc1)NC(=O)c1ccccc1)C(C)C` [PVA-015], the pIC50 is greater than 6.70.

As for `CC(C)[C@H](NC(=O)[C@H](C)NC(=O)[C@H](Cc1ccccc1)NC(=O)c1ccccc1)C(=O)C(=O)N[C@@H](C)c1ccccc1` [PVA-016], the pIC50 was greater than 5.70.

On to `C[C@H](NC(=O)[C@H](Cc1ccccc1)NC(=O)c1ccccc1)C(=O)NCC(=O)C(=O)N1CCC(N(C)C)CC1` [PVA-018], for which the pIC50 was greater than 5.70.

Consider `CC(C)[C@H](NC(=O)[C@H](C)NC(=O)[C@@H](Cc1ccccc1)NC(=O)c1ccc(-c2ccccc2)cc1)C(=O)C(=O)NC1CCCCC1` [PVA-019], for which the pIC50 is greater than 6.70.

In the case of `CC(C)[C@H](NC(=O)[C@H](C)NC(=O)[C@@H](Cc1ccccc1)NC(=O)c1cccc(Oc2ccccc2)c1)C(=O)C(=O)NC1CCCCC1` [PVA-021], the pIC50 was greater than 5.70.

On to `CC(C)C(NC(=O)[C@H](C)NC(=O)[C@H](Cc1ccccc1)NC(=O)c1ccccc1)C(=O)C(=O)NCc1ccncc1` (stereo partly shown) [PVA-022], for which the pIC50 was greater than 6.70.

As to `CC(C)C(NC(=O)[C@H](C)NC(=O)[C@H](Cc1ccccc1)NC(=O)c1ccccc1)C(=O)C(=O)NCc1ccccn1` (stereo partly shown) [PVA-023], the pIC50 is greater than 6.70.

Regarding `CC(C)C(NC(=O)[C@H](C)NC(=O)[C@H](Cc1ccccc1)NC(=O)c1ccccc1)C(=O)C(=O)NCc1cccnc1` (stereo partly shown) [PVA-024], the pIC50 was greater than 6.70.

For `CC(C)C(NC(=O)[C@H](C)NC(=O)[C@H](Cc1ccccc1)NC(=O)c1ccccc1)C(=O)C(=O)NCCN1CCCC1` (stereo partly shown) [PVA-025], the pIC50 is greater than 5.70.

As for `CC(C)[C@H](NC(=O)[C@H](C)NC(=O)[C@@H](Cc1ccc(F)cc1)NC(=O)c1ccccc1)C(=O)C(=O)NC1CCCCC1` [PVA-027], the negative-log IC50 (pIC50) is greater than 6.70.

`CC(C)[C@H](NC(=O)[C@H](C)NC(=O)[C@@H](Cc1ccc(F)c(F)c1)NC(=O)c1ccccc1)C(=O)C(=O)NC1CCCCC1` [PVA-028]: the pIC50 is greater than 6.70.

In the case of `CC(C)[C@H](NC(=O)[C@H](C)NC(=O)[C@H](NC(=O)c1ccccc1)C1Cc2ccccc2C1)C(=O)C(=O)NC1CCCCC1` [PVA-029], the negative logarithm of the IC50 (pIC50) was greater than 5.70.

Consider `CC(C)[C@H](NC(=O)[C@H](C)NC(=O)[C@@H](Cc1ccccc1F)NC(=O)c1ccccc1)C(=O)C(=O)NC1CCCCC1` [PVA-030], for which the pIC50 was greater than 6.70.

For the compound `CC(C)[C@H](NC(=O)[C@H](C)NC(=O)[C@@H](Cc1cccc(F)c1)NC(=O)c1ccccc1)C(=O)C(=O)NC1CCCCC1` [PVA-031], the pIC50 was greater than 6.70.

As for `CC(C)[C@H](NC(=O)[C@H](C)NC(=O)[C@@H](Cc1ccc2ccccc2c1)NC(=O)c1ccccc1)C(=O)C(=O)NCc1ccccc1` [PVA-032], the pIC50 is greater than 6.70.

On to `CC(C)[C@H](NC(=O)[C@H](C)NC(=O)[C@@H](Cc1ccc(-c2ccccc2)cc1)NC(=O)c1ccccc1)C(=O)C(=O)NCc1ccccc1` [PVA-033], for which the negative logarithm of the IC50 (pIC50) was greater than 6.70.

Consider `CC(C)[C@H](NC(=O)[C@H](C)NC(=O)[C@@H](Cc1cccc2ccccc12)NC(=O)c1ccccc1)C(=O)C(=O)NCc1ccccc1` [PVA-034], for which the negative-log IC50 (pIC50) was greater than 5.70.

Turning to `CC(C)[C@H](NC(=O)[C@H](C)NC(=O)[C@@H](Cc1ccccc1)NC(=O)c1ccncc1)C(=O)C(=O)NCc1ccccc1` [PVA-035], the pIC50 is greater than 7.70.

For the compound `CC(C)[C@H](NC(=O)[C@H](C)NC(=O)[C@@H](Cc1ccncc1)NC(=O)c1ccccc1)C(=O)C(=O)NC1CCCCC1` [PVA-036], the pIC50 was greater than 6.70.

For `CCCC[C@H](NC(=O)[C@H](C)NC(=O)[C@@H](NC(=O)c1ccccc1)C(C)(C)C)C(=O)C(=O)NC1CCCCC1` [PVA-037], the pIC50 was greater than 7.70.

Take `CCCC[C@H](NC(=O)[C@H](C)NC(=O)[C@@H](NC(=O)c1ccncc1)C(C)(C)C)C(=O)C(=O)NC1CCCCC1` [PVA-039]: the pIC50 is greater than 7.70.

Regarding `CCCCC(NC(=O)[C@H](C)NC(=O)[C@H](Cc1ccccc1)NC(=O)c1ccccc1)C(=O)C(=O)NCc1ccncc1` (stereo partly shown) [PVA-040], the pIC50 was greater than 5.70.

Turning to `CC(C)[C@H](NC(=O)[C@H](C)NC(=O)[C@H](Cc1ccccc1)NC(=O)c1ccccc1)C(=O)C(=O)NCc1ccc2c(c1)OCO2` [PVA-041], the pIC50 was greater than 6.70.

`COc1ccc(CNC(=O)C(=O)[C@@H](NC(=O)[C@H](C)NC(=O)[C@H](Cc2ccccc2)NC(=O)c2ccccc2)C(C)C)cc1` [PVA-042]: the pIC50 is greater than 7.70.

For `CCCC[C@H](NC(=O)[C@H](C)NC(=O)[C@@H](Cc1ccccc1)NC(=O)c1ccc(N2CCN(C)CC2)cc1)C(=O)C(=O)NC1CCCCC1` [PVA-043], the pIC50 was greater than 5.70.

Regarding `CC(C)[C@H](NC(=O)[C@H](C)NC(=O)[C@H](Cc1ccccc1)NC(=O)c1ccccc1)C(=O)C(=O)NC1CCOCC1` [PVA-044], the pIC50 was greater than 6.70.

Regarding `CC(C)[C@H](NC(=O)[C@H](C)NC(=O)[C@@H](Cc1ccc(F)cc1)NC(=O)c1ccccc1)C(=O)C(=O)NCc1ccccc1` [PVA-045], the pIC50 is greater than 6.70.

On to `COCCNC(=O)C(=O)[C@@H](NC(=O)[C@H](C)NC(=O)[C@H](Cc1ccccc1)NC(=O)c1ccccc1)C(C)C` [PVA-046], for which the pIC50 was greater than 6.70.

Turning to `CC(C)[C@H](NC(=O)[C@H](C)NC(=O)[C@@H](NC(=O)c1ccnc(N2CCOCC2)c1)C(C)(C)C)C(=O)C(=O)NCc1ccccc1` [PVA-048], the pIC50 was greater than 6.70.

For `CC(C)[C@H](NC(=O)[C@H](C)NC(=O)[C@@H](NC(=O)c1ccc(N2CCOCC2)nc1)C(C)(C)C)C(=O)C(=O)NC1CCCCC1` [PVA-049], the pIC50 is greater than 6.70.

As to `CC(C)[C@H](NC(=O)[C@H](C)NC(=O)[C@H](Cc1ccccc1)NC(=O)c1ccc2ncsc2c1)C(=O)C(=O)NC1CCCCC1` [PVA-050], the pIC50 is greater than 6.70.

On to `CC(C)[C@H](NC(=O)[C@H](C)NC(=O)[C@H](Cc1ccccc1)NC(=O)c1ccc2ncsc2c1)C(=O)C(=O)NCc1ccccc1` [PVA-051], for which the pIC50 was greater than 6.70.

In the case of `CC(C)[C@H](NC(=O)[C@H](C)NC(=O)[C@@H](NC(=O)c1cccc2ccccc12)C(C)(C)C)C(=O)C(=O)NC1CCCCC1` [PVA-052], the pIC50 is greater than 6.70.

As to `CC(C)[C@H](NC(=O)[C@H](C)NC(=O)[C@@H](NC(=O)c1ccc2ncsc2c1)C(C)(C)C)C(=O)C(=O)NC1CCCCC1` [PVA-053], the pIC50 was greater than 6.70.

Turning to `CC(C)[C@H](NC(=O)[C@H](C)NC(=O)[C@@H](NC(=O)c1cnccn1)C(C)(C)C)C(=O)C(=O)NC1CCCCC1` [PVA-054], the pIC50 is greater than 6.70.

As to `CC(C)[C@H](NC(=O)[C@H](C)NC(=O)[C@@H](NC(=O)c1cccc2ccccc12)C(C)(C)C)C(=O)C(=O)NCc1ccccc1` [PVA-056], the pIC50 is greater than 6.70.

Consider `CC(C)[C@H](NC(=O)[C@H](C)NC(=O)[C@@H](NC(=O)c1ccc2ncsc2c1)C(C)(C)C)C(=O)C(=O)NCc1ccccc1` [PVA-057], for which the pIC50 was greater than 6.70.

In general, pIC50 refers to the negative decadic logarithm of the IC50, by convention in mol/L.
